Laboratory results published in PMC7534274 (Journal of Enzyme Inhibition and Medicinal Chemistry, 2020).
Where two headings read alike, the source gives them in different places.

Assays:
[1] = stopped-flow CO2 hydrase assay; format: biochemical, Homo sapiens; settings: read-out: hCA I
Description: (§1) stopped-flow CO2 hydrase assay on hCA XII

hCA IX = target: T1, hCA IX (Homo sapiens, UniProt Q16790); assay: stopped-flow CO2 hydrase assay; format: biochemical
T1 construct: gene CA9; recombinant, obtained in-house; tumour-associated isoform
Description: stopped-flow CO2 hydrase assay on hCA IX

hCA VII = target: T2, hCA VII (Homo sapiens, UniProt P43166); assay: stopped-flow CO2 hydrase assay; format: biochemical; settings: read-out: hCA I
T2 construct: gene CA7; recombinant, obtained in-house; cytosolic isoform
T2 sequence (P43166 whole entry, canonical isoform): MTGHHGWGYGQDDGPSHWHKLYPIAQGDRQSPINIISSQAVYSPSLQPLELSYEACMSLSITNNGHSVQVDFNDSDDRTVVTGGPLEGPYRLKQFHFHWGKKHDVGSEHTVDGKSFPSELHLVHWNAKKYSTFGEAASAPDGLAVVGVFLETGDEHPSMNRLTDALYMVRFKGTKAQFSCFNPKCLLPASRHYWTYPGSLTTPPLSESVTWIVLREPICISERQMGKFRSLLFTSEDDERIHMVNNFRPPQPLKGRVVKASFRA
Description: stopped-flow CO2 hydrase assay on hCA VII

hCA II = target: T3, hCA II (Homo sapiens, UniProt P00918); assay: stopped-flow CO2 hydrase assay; format: biochemical; settings: read-out: hCA I
T3 construct: gene CA2; recombinant, obtained in-house; cytosolic isoform
Description: stopped-flow CO2 hydrase assay on hCA II

hCA I = target: T4, hCA I (Homo sapiens, UniProt P00915); assay: stopped-flow CO2 hydrase assay; format: biochemical
T4 construct: gene CA1; recombinant, obtained in-house; cytosolic isoform
T4 sequence (P00915 2-261): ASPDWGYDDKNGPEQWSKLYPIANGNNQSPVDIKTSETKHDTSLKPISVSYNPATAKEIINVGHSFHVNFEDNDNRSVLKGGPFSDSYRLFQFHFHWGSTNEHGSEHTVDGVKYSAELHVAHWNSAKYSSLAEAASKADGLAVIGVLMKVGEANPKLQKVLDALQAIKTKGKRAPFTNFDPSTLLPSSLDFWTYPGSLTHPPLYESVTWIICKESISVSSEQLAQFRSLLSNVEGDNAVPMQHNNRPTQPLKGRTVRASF
Description: stopped-flow CO2 hydrase assay on hCA I

hCA XII = target: T5, hCA XII (Homo sapiens, UniProt O43570); assay: stopped-flow CO2 hydrase assay; format: biochemical; settings: […] HEPES pH […] Na2SO4, CO2 substrate; […] h preincubation
T5 construct: gene CA12; recombinant, obtained in-house; tumour-associated isoform
T5 sequence (O43570 25-354 limits assumed): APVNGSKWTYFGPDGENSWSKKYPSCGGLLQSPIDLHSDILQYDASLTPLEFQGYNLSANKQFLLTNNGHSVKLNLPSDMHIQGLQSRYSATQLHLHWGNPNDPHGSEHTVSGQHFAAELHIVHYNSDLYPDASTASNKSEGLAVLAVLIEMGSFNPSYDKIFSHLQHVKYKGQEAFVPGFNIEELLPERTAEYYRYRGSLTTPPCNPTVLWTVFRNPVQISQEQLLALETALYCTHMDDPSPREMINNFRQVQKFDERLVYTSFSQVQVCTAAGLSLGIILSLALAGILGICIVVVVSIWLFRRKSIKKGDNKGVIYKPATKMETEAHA
Description: as §1

[2] = […] HEPES pH […] Na2SO4, CO2 substrate, […] h preincubation

SMILES	Ki [1] [nM]	Ki (hCA IX) [nM]	Ki (hCA VII) [nM]	Ki (hCA II) [nM]	Ki (hCA I) [nM]	Ki (hCA XII) [nM]	Ki (hCA IX; [2]) [nM]
CC(C(=O)NCCOc1ccc2ccc(=O)oc2c1)c1ccc(-c2ccccc2)c(F)c1 (centres unmarked) [compound 4, 7-substituted coumarin containing flurbiprofen]	> 10000	159	> 10000	> 10000	> 10000		
NS(=O)(=O)Nc1cccc(S(=O)(=O)N2CCCC(C(=O)N3CCN(C(c4ccc(F)cc4)c4ccc(F)cc4)CC3)C2)c1 (centres unmarked) [compound 6, fluorinated benzhydryl piperazine derivative with nipecotic acid spacer (meta benzenesulfonamide)]		296					
NS(=O)(=O)Nc1ccc(S(=O)(=O)N2CCCC(C(=O)N3CCN(C(c4ccccc4)c4ccccc4)CC3)C2)cc1 (centres unmarked) [compound 8, benzhydryl piperazine derivative with nipecotic acid spacer (para)]		1410					
O=C(Cc1ccccc1Nc1c(Cl)cccc1Cl)NCCOc1ccc2ccc(=O)oc2c1 [compound 3, 7-substituted coumarin containing diclofenac]			> 10000	> 10000	> 10000	80.9	89.7
O=C(Cc1ccccc1Nc1c(Cl)cccc1Cl)NCCOc1ccc2oc(=O)ccc2c1 [compound 1, 6-substituted coumarin containing diclofenac]			> 10000	> 10000	> 10000	92.6	28.9
NS(=O)(=O)Nc1ccccc1S(=O)(=O)N1CCCC(C(=O)N2CCN(C(c3ccccc3)c3ccccc3)CC2)C1 (centres unmarked) [compound 7, benzhydryl piperazine derivative with nipecotic acid spacer (ortho)]		> 10000					
NS(=O)(=O)Nc1ccc(S(=O)(=O)N2CCCC(C(=O)N3CCN(C(c4ccc(F)cc4)c4ccc(F)cc4)CC3)C2)cc1 (centres unmarked) [compound 9, fluorinated benzhydryl analogue of 8 (para)]		902					
NS(=O)(=O)Nc1cccc(S(=O)(=O)NCCC(=O)N2CCN(C(c3ccccc3)c3ccccc3)CC2)c1 [compound 5, benzhydryl piperazine derivative with beta-alanine spacer (meta benzenesulfonamide)]		1020					
CC(C(=O)NCCOc1ccc2oc(=O)ccc2c1)c1ccc(-c2ccccc2)c(F)c1 (centres unmarked) [compound 2, 6-substituted coumarin containing flurbiprofen]			> 10000		> 10000		23.5
